# Marks after values point to notes of the source that are not given here. Square brackets hold non-standard residues; d marks the D form. Ends that are not written are not given here.
# What was measured:
# [1] = in vivo; cited from earlier work
# [2] = system: human mammary cell line MDA-MB-231; settings: at 10 »g dose; cited from earlier work
# [3] = system: MiaPaCa cells; assay: Growth of MiaPaCa cells measured by cell counts; type: cell-based, human
# [4] = system: human pancreatic MiaPaCa cancer cell line; assay: Inhibition of 3H-thymidine incorporation into DNA, MiaPaCa cells; type: cell-based
# Description: The ability of peptides of Formula I to inhibit incorporation of [³H]thymidine into DNA of monolayer cultures the small cell lung cancer line H-69 and MiaPaCa cell line is assayed as described by Kern et al. (Cancer Res., 45, 5436 (1985).
# 1x10⁵ cells are plated with DME media containing 10% fetal calf serum (FCS) on Day 0. After 24 hours media is removed and replaced with DME media without serum and incubated at 37°C for 2 days. Media was then removed and replaced with DME media containing 5% FCS with or without somatostatin analog. Media with peptides was changed daily for 4 days. On day 4, 1 »Ci ³H-thymidine added and incubated an additional 17 hrs. Media is then removed and cells recovered by trypsination. DNA extracted with 1 N perchloric acid and the radioactivity measured.
# [5] = system: GH release; settings: relative to somatostatin; cited from earlier work
compound,measurement,setting,value
C[C@H](N)C(=O)NCC(=O)N[C@H]1CSSC[C@@H](C(=O)O)NC(=O)[C@H](CO)NC(=O)[C@H]([C@@H](C)O)NC(=O)[C@H](Cc2ccccc2)NC(=O)[C@H]([C@@H](C)O)NC(=O)[C@H](CCCCN)NC(=O)[C@H](Cc2c[nH]c3ccccc23)NC(=O)[C@H](Cc2ccccc2)NC(=O)[C@H](Cc2ccccc2)NC(=O)[C@H](CC(N)=O)NC(=O)[C@H](CCCCN)NC1=O [SS-14],half-life in circulation,[1],about 3 min
pGlu-His-Trp-Ser-Tyr-D-Lys[Ahx-A₂bu(SAL)₂(Cu)]-Leu-Arg-Pro-Gly-NH₂,inhibits the [³H]thymidine incorporation into DNA,[2],87%
"N[C@@H](Cc1ccc(N(CCCl)CCCl)cc1)C(=O)O [Melphalan, 4-[bis{2-chloroethyl}amino]-phenylalanine]",% Decrease in cell number,[3]; Dose 10⁻⁶ M,29** %
same,% Decrease in cell number,[3]; Dose 10⁻⁷ M,1%
same,% Decrease in cell number,[3]; Dose 10⁻⁸ M,1%
same,% inhibition of ³H-thymidine incorp.,[4]; Dose 10⁻⁶ M,20%
same,% inhibition of ³H-thymidine incorp.,[4]; Dose 10⁻⁷ M,18%
D-Phe-Cys-Tyr-D-Trp-Lys-Val-Cys-Thr-NH₂,times more potent than somatostatin in test for inhibition of GH release,[5],more than 100 times
[dF]CY[dW]KVCW-NH2 (cysteine pairing not given here),times more potent than somatostatin in test for inhibition of GH release,[5],more than 100 times

# From patent EP0450480B1, “Somatostatin Analogues” (The Administrators of The Tulane Educational Fund, priority 1990, dated 1991)
